In patent US8513268B2, “1H-quinazoline-2,4-diones processes for their production, pharmaceutical compositions, and treatment for epilepsy” (Novartis AG, priority 2005, dated 2013) one finds IC50 and melting point data, which are given here for one compound.

The target of one series is T1, rGluR3 AMPA receptor (Rattus norvegicus, UniProt P19492).
T1 construct: expressed in transfected cells; host or cells: Xenopus laevis oocytes injected with cRNA
The series is described as follows: Functional test for AMPA-receptor activity, two electrode voltage clamp in Xenopus laevis oocytes. The series is classed as cell-based. The settings on record: oocytes expressing rat GluR3-(flop) AMPA receptor; read-out: IC50-value (antagonist). Here is the method:
For the determination of functional agonism or antagonism at the AMPA-receptor, experiments can be performed on Xenopus oocytes as previously described in detail (Urwyler et al., Mol. Pharmacol. 2001, 60, 963-971). Briefly, two electrode voltage clamp recordings are performed from Xenopus laevis oocytes expressing GluR3 AMPA receptors. Plasmids for the rat GluR3-(flop) (Hollmann et al., Science 1991, 252, 851-853) are linearized and transcribed into capped cRNA using an in vitro RNA synthesis kit (Ambion, Texas) with T7 Polymerase. Stock solutions are kept in 70% EtOH. Before use, cRNA is precipitated and resuspended in DEPC-treated water. Oocytes are injected with RNA coding the rat GluR3-(flop) AMPA receptor. For recordings, oocytes are placed in a perfusion chamber with continuous gravity flow of frog Ringer's solution. For recordings from oocytes expressing rGluR3-(flop) receptors frog, Ringer's solution containing Mg^2+ (81 mM NaCl; 2.5 mM KCl; 1 mM CaCl2; 1 mM MgCl2, 2.5 mM NaHCO3, 5 mM HEPES, pH 7.4) is used.
Test compounds are washed in with gravity.
A general note: Two-electrode voltage clamp holds a large cell at a set potential and records current.

Another series addresses AMPA-Receptor. The series is described as follows: [3H] CNQX binding test (AMPA-receptor binding). The settings on record: brain membranes, 5 nM [3H]-CNQX, 4° C., 40 min. How it is done: CNQX binding test (Honoré et al. Biochem. Pharmacol. 1989, 38: 3207-3212). This test is performed as follows: • Brain membranes: The animals are decapitated, the brain removed and homogenized in 10 volumes of ice-cold 10% sucrose with a glass/Teflon homogenizer at positions 5 for 30 sec. The membranes are centrifuged at 1000×g for 10 min, and the supernatant centrifuged at 20,000×g for 15 min. The resulting pellet is resuspended in 10 volumes of cold water with a tissue homogenizer (Brinkman Polytron) at position 5 for 15 sec and the suspension centrifuged at 8000×g for 10 min. The supernatant including the buffy layer is centrifuged at 40,000×g for 20 min, the pellet resuspended in 5 volumes of water and the suspension frozen (20-30 min in dry ice/MeOH) and thawed (water-bath at 37° C.) twice. The suspension is centrifuged at 40,000×g for 20 min, the pellet resuspended in 50 mM HEPES/KOH, pH 7.5, and centrifuged at 40,000×g for 10 min. […]
Two hundred μL of the scintillation fluid Microscint 20 (Packard) are added and the radioactivity is counted in a Packard Topcount scintillation counter at an efficiency of 40-45%. […]

T1 sequence (P19492 23-888): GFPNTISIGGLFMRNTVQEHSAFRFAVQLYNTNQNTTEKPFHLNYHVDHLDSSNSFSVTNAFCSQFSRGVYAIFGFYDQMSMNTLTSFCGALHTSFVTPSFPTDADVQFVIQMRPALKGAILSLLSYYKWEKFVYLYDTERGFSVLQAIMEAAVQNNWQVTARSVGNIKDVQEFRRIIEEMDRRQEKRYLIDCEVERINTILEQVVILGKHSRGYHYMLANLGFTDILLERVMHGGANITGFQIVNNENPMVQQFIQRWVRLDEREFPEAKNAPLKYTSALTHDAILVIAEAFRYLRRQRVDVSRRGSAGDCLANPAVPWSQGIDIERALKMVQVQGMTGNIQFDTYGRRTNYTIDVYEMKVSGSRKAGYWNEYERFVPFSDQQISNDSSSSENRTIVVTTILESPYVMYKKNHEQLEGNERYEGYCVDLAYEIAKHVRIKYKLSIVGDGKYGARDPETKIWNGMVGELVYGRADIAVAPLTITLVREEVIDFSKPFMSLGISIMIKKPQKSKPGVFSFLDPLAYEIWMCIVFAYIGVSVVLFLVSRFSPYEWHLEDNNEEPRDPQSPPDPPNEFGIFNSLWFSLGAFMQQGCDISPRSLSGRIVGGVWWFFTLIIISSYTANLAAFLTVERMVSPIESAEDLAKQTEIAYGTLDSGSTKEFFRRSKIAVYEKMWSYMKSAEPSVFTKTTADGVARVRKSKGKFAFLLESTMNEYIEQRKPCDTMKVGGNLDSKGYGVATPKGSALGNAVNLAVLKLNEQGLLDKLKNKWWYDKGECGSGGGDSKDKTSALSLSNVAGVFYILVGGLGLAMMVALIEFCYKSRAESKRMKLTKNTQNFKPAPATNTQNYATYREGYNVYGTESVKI

As for `CCOC(C)c1cc2c(=O)n(NS(C)(=O)=O)c(=O)[nH]c2cc1C(F)(F)F` (stereo not drawn) [Example 4, N-[6-(1-Ethoxy-ethyl)-2,4-dioxo-7-trifluoromethyl-1,4-dihydro-2H-quinazolin-3-yl]-methanesulfonamide], the melting point fell in the range of 105 to 112 °C. For the same compound, on rGluR3 AMPA receptor, the IC50 was under 3 µM. Further, the IC50 at AMPA-Receptor was under 1000 nM.

For orientation: IC50 means the concentration that gives 50% inhibition. In general, melting point refers to the temperature of the solid-liquid transition.
